The nature of assay [1]: Inhibition of (Le(a)Le(x))14-BSA conjugate binding to mouse Anti-Le(a) monoclonal antibody SPM 522 preincubated with mAb for 1 hr followed by incubation with immobilized antigen BSA-conjugate for 3 hrs by competitive ELISA. (In general: An ELISA detects its analyte on a solid surface through an enzyme-linked reagent.)
The species named for the next assay is Mus musculus. The assay can be described thus: Inhibition of (Le(a)Le(x))14-BSA conjugate binding to mouse Anti-Le(a) monoclonal antibody SPM 522 assessed as change in free energy preincubated with mAb for 1 hr followed by incubation with immobilized antigen BSA-conjugate for 3 hrs by competitive ELISA relative to control. The note with it: time 4.0 hrs.

Molecules are shown by their SMILES. pIC50: −log10 of the molar value.

The pIC50 is the negative decadic logarithm of the IC50, by convention in mol/L. A low value points to a high IC50. Regarding `CCCCCCO[C@@H]1O[C@H](CO)[C@@H](O[C@@H]2O[C@H](CO)[C@H](O)[C@H](O[C@@H]3O[C@H](CO)[C@@H](O)[C@H](O[C@@H]4O[C@H](CO)[C@H](O)[C@H](O)[C@H]4O)[C@H]3NC(C)=O)[C@H]2O)[C@H](O)[C@H]1NC(C)=O`, the pIC50 in assay [1] was 2.92. Also, the deltaG in the assay filed under Mus musculus was 2.3 kcal/mol.

`CO[C@@H]1O[C@H](CO)[C@H](O)[C@H](O[C@@H]2O[C@H](CO)[C@@H](O)[C@H](O[C@@H]3O[C@H](CO)[C@H](O)[C@H](O)[C@H]3O)[C@H]2NC(C)=O)[C@H]1O` gave a pIC50 in assay [1] of 3.27. In addition, the deltaG in the assay filed under Mus musculus came out at 1.8 kcal/mol.

With `CO[C@@H]1O[C@H](CO)[C@@H](O[C@@H]2O[C@@H](C)[C@H](O)[C@@H](O)[C@H]2O)[C@H](O[C@@H]2O[C@H](CO)[C@H](O)[C@H](O)[C@H]2O)[C@H]1NC(C)=O`, the pIC50 in assay [1] was 2.15. In the assay filed under Mus musculus, the deltaG stood at 0.5 kcal/mol.

The molecule `CCCCCCO[C@@H]1O[C@H](CO)[C@@H](O[C@@H]2O[C@H](CO)[C@H](O)[C@H](O[C@@H]3O[C@H](CO)[C@@H](O[C@@H]4O[C@@H](C)[C@@H](O)[C@@H](O)[C@@H]4O)[C@H](O[C@@H]4O[C@H](CO)[C@H](O)[C@H](O)[C@H]4O)[C@H]3NC(C)=O)[C@H]2O)[C@H](O[C@@H]2O[C@@H](C)[C@@H](O)[C@@H](O)[C@@H]2O)[C@H]1NC(C)=O` had a pIC50 in assay [1] of 4.64. In addition, in the assay filed under Mus musculus, the deltaG amounted to 0 kcal/mol.

`CCCCCCO[C@@H]1O[C@H](CO)[C@@H](O[C@@H]2O[C@H](CO)[C@H](O)[C@H](O[C@@H]3O[C@H](CO)[C@@H](O)[C@H](O[C@@H]4O[C@H](CO)[C@H](O)[C@H](O)[C@H]4O)[C@H]3NC(C)=O)[C@H]2O)[C@H](O[C@@H]2O[C@@H](C)[C@@H](O)[C@@H](O)[C@@H]2O)[C@H]1NC(C)=O` (stereo in doubt) gave a pIC50 in assay [1] of 2.87. Besides, the deltaG in the assay listed under Mus musculus amounted to 2.4 kcal/mol.

In assay [1], `CO[C@@H]1O[C@H](CO)[C@@H](O[C@@H]2O[C@@H](C)[C@@H](O)[C@@H](O)[C@@H]2O)[C@H](O[C@@H]2O[C@H](CO)[C@H](O)[C@H](O)[C@H]2O)[C@H]1NC(C)=O` showed a pIC50 of 2.51. For the same molecule, the deltaG in the assay filed under Mus musculus was 0 kcal/mol.

For the origin of these results see ChEMBL document CHEMBL5143575, “Anti-Lea monoclonal antibody SPM 522 recognizes an extended Lea epitope” (Bioorg Med Chem, 2022).
